The source of these data is article PMC10620772, “Design, synthesis, and biological evaluation of new pyrimidine-5-carbonitrile derivatives as novel anti-cancer, dual EGFR^WT/COX-2 inhibitors with docking studies” (RSC Advances, 2023).

A word on the GI50: it is the concentration giving 50% growth inhibition.

Where “and” joins values, the source holds several entries; their conditions need not be identical. Equal values may be shown once.

One test relates to colon cancer subpanel. The test is described as follows: NCI60 five-dose, subpanel III. The class given is cell-based, human. Conditions: for GI50: Homo sapiens, read-out: MG-MID (GI50); for GI50 / MG-MID (TGI): subpanel III; for Selectivity index (GI50) / Selectivity index (TGI): full panel MG-MID / subpanel III. From the text: (2) The molar concentration of the compound responsible for total growth inhibition, also known as total growth inhibition (TGI).
Regarding subpanel selectivity toward certain cancer type, the method of determining a compound's selectivity index is to divide the full panel MG-MID (μM) value by each single subpanel. Values above six indicate high selectivity against the subpanel; moderate selectivity is denoted by values between three and six. Conversely, compounds are termed nonselective if their selectivity is less than three.[30,37]

Test [1] has as its system active caspase-3 in Colo 205 cells. The test is described as follows: Caspase-3 ELISA. The test is classed as cell-based, human. Conditions: for Caspase 3: Colo_205, treated at IC50. From the text:
Among the death proteases, the caspases family of cysteine-dependent aspartate-directed proteases is significant. There are multiple levels where caspase activation and activity are regulated.[43] Caspases are activated during apoptosis, which eventually results in cell death by deactivating a number of signals.[44] One of the crucial survival signals, EGFR, may be the target of caspase activation to ensure the completion of apoptosis.[45] Additionally, it has been reported that activating caspase-3 through COX-2 inhibition enhances apoptosis.[40] Therefore, the impact of the novel compounds on the level of caspase 3 was examined.
(1) Into the antibody coated wells add 100 μl of standard diluent buffer excepts wells wich detected to be the chromogen blank, then add 100 μl. […] (10) Decant liquid from wells then wash, (11) pipette 100 μl of chromogen substrate to all wells, The well fluid will start to become blue. (12) 30 minutes should be spent incubating at room temperature in the dark. (13) To each well, add 100 μl of stop solution. To mix, lightly tap the plate's edge. The well solution should transform from blue to yellow. (14) Read the absorbance of each well using a microtiter plate reader at 450 nm. (15) Draw the standard curve using a curve fitting program. (16) The standard curve can be used to determine the concentrations for unknown samples and controls.[55]
For orientation: In an ELISA, binding on a coated surface is turned into a signal by an enzyme label.

With `N#Cc1c(-c2ccc(F)cc2)nc(SCc2ccccc2)nc1N1CCNCC1` [4e, 2-(Benzylthio)-4-(4-fluorophenyl)-6-(piperazin-1-yl) pyrimidine-5-carbonitrile], in the test on colon cancer subpanel, the GI50 worked out at 5.1 µM, the “Selectivity index (GI50)” value is reported as 2.09, the “Selectivity index (TGI)” value is listed as 1.79 and the “MG-MID (TGI)” value is 13.12 µM. In test [1], the “Caspase 3” value stood at 808.9 ± 11.9 pg·mL.
For `N#Cc1c(-c2ccc(F)cc2)nc(SCc2ccc(F)cc2)nc1N1CCNCC1` [4f, 2-((4-Fluorobenzyl)thio)-4-(4-fluorophenyl)-6-(piperazin-1-yl) pyrimidine-5-carbonitrile], in the test with colon cancer subpanel, the GI50 worked out at 7 µM, the “Selectivity index (GI50)” value is reported as 1.92, the “Selectivity index (TGI)” value worked out at 1.54 and the “MG-MID (TGI)” value was 17.15 µM. The “Caspase 3 fold vs control” value in test [1] (Colo 205, treated at IC50) was 8 fold and 7.88 fold. Moreover, the “Caspase 3” value in test [1] stood at 656.4 ± 13.1 pg·mL.
